Source: US20240109865A1, “INDAZOLE COMPOUNDS AS KINASE INHIBITORS” (TYRA BIOSCIENCES, INC., priority 2020, published 2024)

Assays:
Experiment in all cases: Kinase assay, binding constants (Kd), kinase-tagged T7 phage, qPCR
FGFR4 = FGFR4 (Homo sapiens (Human), UniProt P22455)
Outline: (§1)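 Competition binding: kinase-tagged T7 phage lysates mixed with immobilized biotinylated ligand on streptavidin beads plus compound (11-point 3-fold dilution series, 0.9% DMSO final). Bound kinase eluted with free ligand and quantified by qPCR. Kd from Hill equation fit, slope fixed at −1.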

FGFR3 (V555M) = FGFR3 (V555M) (Homo sapiens (Human), UniProt P22607, V555M); settings: V555M mutant
Outline: as §1

FGFR1 = FGFR1 (Homo sapiens (Human), UniProt P11362)
Outline: as §1

FGFR2 = FGFR2 (Homo sapiens (Human), UniProt P21802)
Outline: as §1

FGFR3 = FGFR3 (Homo sapiens (Human), UniProt P22607)
Outline: as §1

Sequence of FGFR1 (P11362 22-822): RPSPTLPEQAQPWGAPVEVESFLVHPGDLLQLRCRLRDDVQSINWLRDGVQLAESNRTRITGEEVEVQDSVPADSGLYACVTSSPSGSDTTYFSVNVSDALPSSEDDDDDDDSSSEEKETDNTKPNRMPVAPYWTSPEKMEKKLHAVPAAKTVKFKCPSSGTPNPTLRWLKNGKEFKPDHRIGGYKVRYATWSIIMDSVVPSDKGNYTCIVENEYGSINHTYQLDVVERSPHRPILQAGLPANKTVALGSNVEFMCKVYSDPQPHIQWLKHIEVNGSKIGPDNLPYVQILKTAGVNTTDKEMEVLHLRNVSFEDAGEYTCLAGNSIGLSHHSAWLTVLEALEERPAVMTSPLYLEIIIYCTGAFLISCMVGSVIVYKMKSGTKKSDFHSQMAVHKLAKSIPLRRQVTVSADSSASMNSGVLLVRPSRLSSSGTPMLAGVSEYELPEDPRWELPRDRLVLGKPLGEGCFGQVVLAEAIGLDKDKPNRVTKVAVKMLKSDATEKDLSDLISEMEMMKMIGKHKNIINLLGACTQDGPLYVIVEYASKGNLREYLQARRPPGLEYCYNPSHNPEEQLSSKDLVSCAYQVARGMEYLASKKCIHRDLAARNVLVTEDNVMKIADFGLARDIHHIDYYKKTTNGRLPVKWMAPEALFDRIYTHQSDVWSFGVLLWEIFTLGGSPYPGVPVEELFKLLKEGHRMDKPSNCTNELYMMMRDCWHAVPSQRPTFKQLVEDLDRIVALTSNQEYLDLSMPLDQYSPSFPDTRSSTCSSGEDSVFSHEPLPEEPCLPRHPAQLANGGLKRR
Sequence of FGFR3 (V555M) (P22607 23-806 V555M): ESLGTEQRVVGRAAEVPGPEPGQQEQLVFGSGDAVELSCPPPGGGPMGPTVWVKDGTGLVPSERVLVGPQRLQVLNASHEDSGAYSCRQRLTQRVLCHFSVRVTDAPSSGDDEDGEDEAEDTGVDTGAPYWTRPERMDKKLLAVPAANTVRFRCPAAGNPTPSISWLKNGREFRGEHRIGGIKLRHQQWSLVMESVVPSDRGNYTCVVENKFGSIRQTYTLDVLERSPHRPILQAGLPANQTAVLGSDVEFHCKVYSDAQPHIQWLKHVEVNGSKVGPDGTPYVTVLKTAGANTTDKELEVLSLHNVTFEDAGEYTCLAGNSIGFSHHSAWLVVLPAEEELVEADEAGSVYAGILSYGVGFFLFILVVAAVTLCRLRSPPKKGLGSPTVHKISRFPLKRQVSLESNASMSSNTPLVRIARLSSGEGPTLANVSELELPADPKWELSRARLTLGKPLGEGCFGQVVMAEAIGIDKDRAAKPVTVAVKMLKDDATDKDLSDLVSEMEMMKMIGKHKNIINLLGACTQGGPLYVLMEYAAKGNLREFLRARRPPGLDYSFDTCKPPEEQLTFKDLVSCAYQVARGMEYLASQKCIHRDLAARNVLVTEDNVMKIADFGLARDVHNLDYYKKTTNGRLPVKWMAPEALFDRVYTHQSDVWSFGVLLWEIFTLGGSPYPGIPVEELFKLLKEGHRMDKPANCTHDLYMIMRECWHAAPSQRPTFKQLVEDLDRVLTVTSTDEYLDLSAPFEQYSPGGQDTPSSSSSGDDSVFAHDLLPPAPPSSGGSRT
Sequence of FGFR4 (P22455 22-802): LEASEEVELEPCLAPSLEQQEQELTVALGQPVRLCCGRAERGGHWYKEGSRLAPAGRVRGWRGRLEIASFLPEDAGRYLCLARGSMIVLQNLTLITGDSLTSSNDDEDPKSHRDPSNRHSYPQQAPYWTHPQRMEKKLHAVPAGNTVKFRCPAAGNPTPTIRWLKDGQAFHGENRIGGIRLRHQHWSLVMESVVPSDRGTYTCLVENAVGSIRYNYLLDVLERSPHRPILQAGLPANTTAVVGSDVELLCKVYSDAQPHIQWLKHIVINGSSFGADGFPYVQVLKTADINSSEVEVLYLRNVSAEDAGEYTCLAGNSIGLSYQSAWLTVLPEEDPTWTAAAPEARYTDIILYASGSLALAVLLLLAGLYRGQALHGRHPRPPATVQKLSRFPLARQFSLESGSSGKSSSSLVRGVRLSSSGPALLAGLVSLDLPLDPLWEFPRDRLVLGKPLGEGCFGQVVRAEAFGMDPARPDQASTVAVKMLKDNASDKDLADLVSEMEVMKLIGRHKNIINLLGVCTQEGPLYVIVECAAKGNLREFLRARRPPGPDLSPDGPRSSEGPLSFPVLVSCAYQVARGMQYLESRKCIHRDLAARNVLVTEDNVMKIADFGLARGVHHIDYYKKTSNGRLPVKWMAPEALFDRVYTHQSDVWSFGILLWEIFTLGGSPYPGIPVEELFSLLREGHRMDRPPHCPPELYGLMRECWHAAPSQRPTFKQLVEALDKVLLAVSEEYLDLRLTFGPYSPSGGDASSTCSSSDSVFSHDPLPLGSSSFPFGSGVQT
Sequence of FGFR3 (P22607 23-806): as the sequence (P22607 23-806 V555M) above, with M533V counted along it
Sequence of FGFR2 (P21802 22-821): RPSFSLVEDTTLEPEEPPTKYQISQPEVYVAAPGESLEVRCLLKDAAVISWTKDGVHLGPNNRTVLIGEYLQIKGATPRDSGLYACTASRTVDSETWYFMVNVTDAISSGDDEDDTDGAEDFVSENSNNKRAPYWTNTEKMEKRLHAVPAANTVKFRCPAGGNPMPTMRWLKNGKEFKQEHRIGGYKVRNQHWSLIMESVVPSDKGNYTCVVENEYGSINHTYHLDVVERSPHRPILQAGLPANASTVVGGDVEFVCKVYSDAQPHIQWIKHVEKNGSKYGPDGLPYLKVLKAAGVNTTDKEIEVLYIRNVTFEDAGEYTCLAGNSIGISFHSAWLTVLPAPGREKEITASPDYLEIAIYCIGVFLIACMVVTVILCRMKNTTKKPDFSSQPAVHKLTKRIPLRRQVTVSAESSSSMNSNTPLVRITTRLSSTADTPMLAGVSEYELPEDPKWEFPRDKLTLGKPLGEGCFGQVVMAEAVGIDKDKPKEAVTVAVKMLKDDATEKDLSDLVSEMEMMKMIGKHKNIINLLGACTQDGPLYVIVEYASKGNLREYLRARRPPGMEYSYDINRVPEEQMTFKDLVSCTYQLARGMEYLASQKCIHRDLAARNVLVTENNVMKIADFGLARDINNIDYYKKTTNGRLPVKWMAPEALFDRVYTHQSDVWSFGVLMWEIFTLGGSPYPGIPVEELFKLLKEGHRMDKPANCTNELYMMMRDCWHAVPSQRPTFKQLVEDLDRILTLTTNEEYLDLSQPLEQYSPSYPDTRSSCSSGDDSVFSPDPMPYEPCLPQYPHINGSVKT

| Compound | Kd (FGFR4) [nM] | Kd (FGFR3 (V555M)) [nM] | Kd (FGFR1) [nM] | Kd (FGFR2) [nM] | Kd (FGFR3) [nM] |
| --- | --- | --- | --- | --- | --- |
| COC(=O)N1CC2(C1)CN(c1ccc(-c3n[nH]c4ccc(O[C@H](C)c5c(Cl)cnc(F)c5Cl)cc34)cn1)C2 [Example 195, methyl 6-[5-[5-[(1R)-1-(3,5-dichloro-2-fluoro-4-pyridyl)ethoxy]-1H-indazol-3-yl]-2-pyridyl]-2,6-diazaspiro[3.3]heptane-2-carboxylate] | 20 to 100 | 1 to 20 | 100 to 300 | 20 to 100 | 1 to 20 |
| COc1cc(-c2n[nH]c3ccc(O[C@H](C)c4c(C)cnnc4C)cc23)cnc1N1CC2CC(C1)N2 [Example 300, 3-(5-(5-((R)-1-(3,5-dimethylpyridazin-4-yl)ethoxy)-1H-indazol-3-yl)-3-methoxypyridin-2-yl)-3,6-diazabicyclo[3.1.1]heptane] | 20 to 100 | 20 to 100 | 100 to 300 | 100 to 300 | 20 to 100 |
| C[C@@H]1CCN1c1ncc(-c2n[nH]c3cc(Cl)c(O[C@H](C)c4c(Cl)cncc4Cl)cc23)cc1F [Example 272, 6-chloro-5-((R)-1-(3,5-dichloropyridin-4-yl)ethoxy)-3-(5-fluoro-6-((R)-2-methylazetidin-1-yl)pyridin-3-yl)-1H-indazole] | 20 to 100 | 20 to 100 | > 300 | > 300 | 20 to 100 |
| COc1cc2[nH]nc(-c3cnc(N4CC[C@H](O)C4)c(C#N)c3)c2cc1O[C@H](C)c1c(C)cnnc1C [Example 311, 5-(5-((R)-1-(3,5-dimethylpyridazin-4-yl)ethoxy)-6-methoxy-1H-indazol-3-yl)-2-((S)-3-hydroxypyrrolidin-1-yl)nicotinonitrile] | 1 to 20 | 1 to 20 | 20 to 100 | 20 to 100 | 20 to 100 |
| Cc1ncc(Cl)c([C@@H](C)Oc2ccc3[nH]nc(-c4ccc(N5CC6(CCC6)C5)nc4)c3c2)c1Cl [Example 212, 3-[6-(2-azaspiro[3.3]-heptan-2-yl)-3-pyridyl]-5-[(1R)-1-(3,5-dichloro-2-methyl-4-pyridyl)ethoxy]-1H-indazole] | 100 to 300 | 1 to 20 | > 300 | 100 to 300 | 20 to 100 |
| Cc1ncc(Cl)c([C@@H](C)Oc2ccc3[nH]nc(-c4ccc(N5CCC[C@H]5CO)nc4)c3c2)c1Cl [Example 241, [(2S)-1-[5-[5-[(1R)-1-(3,5-dichloro-2-methyl-4-pyridyl)ethoxy]-1H-indazol-3-yl]-2-pyridyl]pyrrolidin-2-yl]methanol] | 1 to 20 | 1 to 20 | 1 to 20 | 20 to 100 | 1 to 20 |
| Cc1cc(-c2n[nH]c3ccc(O[C@H](C)c4c(C)cnnc4C)cc23)cnc1N1CCN2C(=O)NCC2C1 (stereo partly drawn) [Example 231, 7-(5-(5-((R)-1-(3,5-dimethylpyridazin-4-yl)ethoxy)-1H-indazol-3-yl)-3-methylpyridin-2-yl)hexahydroimidazo[1,5-a]pyrazin-3(2H)-one] | 1 to 20 | 1 to 20 | 20 to 100 | 1 to 20 | 1 to 20 |
| C[C@@H](Oc1ccc2[nH]nc(-c3cnn(C4CCS(=O)(=O)CC4)c3)c2c1)c1cc(F)cc(F)c1 [Example 171, 4-[4-[5-[(1R)-1-(3,5-difluorophenyl)ethoxy]-1H-indazol-3-yl]pyrazol-1-yl]thiane 1,1-dioxide] | > 300 | 1 to 20 | 100 to 300 | 20 to 100 | 20 to 100 |
| Cc1cc(-c2n[nH]c3ccc(O[C@H](C)c4c(Cl)cnc(C)c4Cl)cc23)cnc1N1CC2(C1)CN(S(C)(=O)=O)C2 [Example 235, 5-[(1R)-1-(3,5-dichloro-2-methyl-4-pyridyl)ethoxy]-3-[5-methyl-6-(2-methylsulfonyl-2,6-diazaspiro[3.3]heptan-6-yl)-3-pyridyl]-1H-indazole] | 1 to 20 | 1 to 20 | 100 to 300 | 100 to 300 | 1 to 20 |
| Cc1cnnc(C)c1[C@@H](C)Oc1ccc2[nH]nc(-c3cnc(N4CC5(C4)CN(S(C)(=O)=O)C5)nc3)c2c1 [Example 156, 5-[(1R)-1-(3,5-dimethylpyridazin-4-yl)ethoxy]-3-[2-(2-methylsulfonyl-2,6-diazaspiro[3.3]heptan-6-yl)pyrimidin-5-yl]-1H-indazole] | 1 to 20 | 1 to 20 | 100 to 300 | 20 to 100 | 1 to 20 |
| C[C@@H](Oc1ccc2[nH]nc(-c3cnc(N4CC(C)(N)C4)c(C#N)c3)c2c1)c1c(Cl)cncc1Cl [Example 358, (R)-2-(3-amino-3-methylazetidin-1-yl)-5-(5-(1-(3,5-dichloropyridin-4-yl)ethoxy)-1H-indazol-3-yl)nicotinonitrile] | 1 to 20 | 1 to 20 | 20 to 100 | 100 to 300 | 1 to 20 |
| Cc1cnnc(C)c1[C@H](C)Oc1ccc2[nH]nc(-c3ccc(N4CC5(C4)CN(S(C)(=O)=O)C5)nc3)c2c1 [Example 149, 5-[(1S)-1-(3,5-dimethylpyridazin-4-yl)ethoxy]-3-[6-(2-methylsulfonyl-2,6-diazaspiro[3.3]heptan-6-yl)-3-pyridyl]-1H-indazole] | 100 to 300 | 20 to 100 | > 300 | 100 to 300 | 20 to 100 |
| COc1cc2[nH]nc(-c3ccc(N4CCCC4)nc3)c2cc1O[C@H](C)c1c(Cl)cnc(C)c1Cl [Example 220, 5-[(1R)-1-(3,5-dichloro-2-methyl-4-pyridyl)ethoxy]-6-methoxy-3-(6-pyrrolidin-1-yl-3-pyridyl)-1H-indazole] | 1 to 20 | 1 to 20 | 20 to 100 | 20 to 100 | 1 to 20 |
| Cc1ncc(Cl)c([C@@H](C)Oc2cc3c(-c4cnc(N5CC6(C5)CN(S(C)(=O)=O)C6)c(F)c4)n[nH]c3cc2F)c1Cl [Example 269, 5-[(1R)-1-(3,5-dichloro-2-methyl-4-pyridyl)ethoxy]-6-fluoro-3-[5-fluoro-6-(2-methylsulfonyl-2,6-diazaspiro[3.3]heptan-6-yl)-3-pyridyl]-1H-indazole] | 1 to 20 | 1 to 20 | 20 to 100 | 20 to 100 | 1 to 20 |
| Cc1ncc(Cl)c([C@@H](C)Oc2ccc3[nH]nc(-c4ccc(N5CC6(CCC(O)C6)C5)nc4)c3c2)c1Cl (stereo partly drawn) [Example 247, 2-[5-[5-[(1R)-1-(3,5-dichloro-2-methyl-4-pyridyl)ethoxy]-1H-indazol-3-yl]-2-pyridyl]-2-azaspiro[3.4]octan-6-ol] | 1 to 20 | 1 to 20 | 20 to 100 | 20 to 100 | 1 to 20 |
| COc1cc2[nH]nc(-c3cnc(N4CCC4)c(F)c3)c2cc1O[C@H](C)c1c(Cl)cncc1Cl [Example 268, (R)-3-(6-(azetidin-1-yl)-5-fluoropyridin-3-yl)-5-(1-(3,5-dichloropyridin-4-yl)ethoxy)-6-methoxy-1H-indazole] | 1 to 20 | 1 to 20 | 20 to 100 | 20 to 100 | 1 to 20 |
| Cc1cnnc(C)c1[C@@H](C)Oc1ccc2[nH]nc(-c3cnc(N4CC[C@H](C(C)(C)O)C4)c(C#N)c3)c2c1 [Example 301, 5-(5-((R)-1-(3,5-dimethylpyridazin-4-yl)ethoxy)-1H-indazol-3-yl)-2-((S)-3-(2-hydroxypropan-2-yl)pyrrolidin-1-yl)nicotinonitrile] | 1 to 20 | 1 to 20 | 100 to 300 | 100 to 300 | 20 to 100 |
